Test results as given in patent publication EP0220825A2, “Pharmaceutical composition for topical application” (DIOMED DEVELOPMENTS LIMITED, priority 1985, dated 1987).
Where “and” joins values, the source holds several entries; their conditions need not be identical. Equal values may be shown once.

Key:
[1] = test system: local blood flow; assay: Laser Doppler flowmeter measurement of blood cell flux after topical application; format: in vivo; conditions: for No. measurable responses: of ten subjects; for Time to response Initial / Time to response Peak / Time to response Return to zero: ± S.D.
Excerpt: The blood cell flux is then given by the product of the number of red blood cells found to be moving in the irradiated volume of skin and adjacent tissue and the mean red blood cell velocity. The results expressed by the flowmeter indicate the relative change of the blood cell flux over control conditions, i.e. before application of the composition. […] The figures for "area" given in the third column are obtained by graphical integration of a graph of blood cell flux against time obtained using the laser Doppler flowmeter. Any figure in this column greater than about 20 may be regarded as indicative of a useful improvement in local blood flow in the treated area. […] Thus the compositions in accordance with the invention make it possible to obtain a useful increase in local blood flow without appreciable erythema. The compositions of the present invention are thus useful in preventing pressure sores where is it desired to stimulate local blood flow without obvious erythema.

[2] = test system: skin; assay: Erythema score after topical application; format: in vivo
Excerpt: Using an erythema scale of 0 to 3, an erythema value of up to 0.5 (which is barely detectable) is considered acceptable. The figures for "area" given in the third column are obtained by graphical integration of a graph of blood cell flux against time obtained using the laser Doppler flowmeter. Any figure in this column greater than about 20 may be regarded as indicative of a useful improvement in local blood flow in the treated area. […] Thus the compositions in accordance with the invention make it possible to obtain a useful increase in local blood flow without appreciable erythema. The compositions of the present invention are thus useful in preventing pressure sores where is it desired to stimulate local blood flow without obvious erythema.

- Erythema ([2]; 0.025 % hexyl nicotinate lotion, site arms, single subjects, score 0-3 (0=No erythema, 3=severe erythema)): 0 (4×) and 0.5
- Erythema ([2]; 0.025 % hexyl nicotinate lotion, site buttocks, single subjects, score 0-3): 0 (4×) and 1
- Erythema ([2]; 0.05 % hexyl nicotinate lotion (Example l), site arms, single subjects, score 0-3): 0 (2×) and 0.5 (2×) and 1
- Erythema ([2]; 0.05 % hexyl nicotinate lotion (Example l), site buttocks, single subjects, score 0-3): 1 (2×) and 0.5 and 0 (2×)
- Erythema ([2]; 0.10 % hexyl nicotinate lotion, site arms, single subjects, score 0-3): 2 (3×) and 0 and 1
- Erythema ([2]; 0.10 % hexyl nicotinate lotion, site buttocks, single subjects, score 0-3): 2 and 1 and 0.5 (2×) and 3
- Erythema ([2]; summary of ten subjects, 0.025 % hexyl nicotinate, score 0-3): 0.15
- Erythema ([2]; summary of ten subjects, 0.05 % hexyl nicotinate, score 0-3): 0.45
- Erythema ([2]; summary of ten subjects, 0.10 % hexyl nicotinate, score 0-3): 1.40
Structure (SMILES): CCCCCCOC(=O)c1cccnc1 [hexyl nicotinate, Hexyl nicotinate]
- Area ([1]; 0.025 % hexyl nicotinate lotion, site arms, single subjects, area under curve of blood cell flux against time, adjusted to a sensitivity of 1): 0 cm^2 (4×) and 124.05 cm^2
- Area ([1]; 0.025 % hexyl nicotinate lotion, site buttocks, single subjects, area under curve of blood cell flux against time): 5.00 cm^2 and 0 cm^2 (3×) and 51.59 cm^2
- Area ([1]; 0.05 % hexyl nicotinate lotion (Example l), site arms, single subjects, area under curve of blood cell flux against time): 32.17 cm^2 and 0 cm^2 and 89.59 cm^2 and 80.90 cm^2 and 126.32 cm^2
- Area ([1]; 0.05 % hexyl nicotinate lotion (Example l), site buttocks, single subjects, area under curve of blood cell flux against time): 91.86 cm^2 and 22.28 cm^2 and 4.29 cm^2 and 0 cm^2 and 64.73 cm^2
- Area ([1]; 0.10 % hexyl nicotinate lotion, site arms, single subjects, area under curve of blood cell flux against time): 103.06 cm^2 and 0 cm^2 and 82.80 cm^2 and 152.26 cm^2 and 119.99 cm^2
- Area ([1]; 0.10 % hexyl nicotinate lotion, site buttocks, single subjects, area under curve of blood cell flux against time): 246.74 cm^2 and 119.97 cm^2 and 0 cm^2 and 5.24 cm^2 and 199.76 cm^2
- No. measurable responses ([1]; 0.025 % hexyl nicotinate): 2
- No. measurable responses ([1]; 0.05 % hexyl nicotinate): 8
- No. measurable responses ([1]; 0.10 % hexyl nicotinate): 8
- Area ([1]; summary of ten subjects, 0.025 % hexyl nicotinate): 18.05 cm^2
- Area ([1]; summary of ten subjects, 0.05 % hexyl nicotinate): 51.21 cm^2
- Area ([1]; summary of ten subjects, 0.10 % hexyl nicotinate): 102.98 cm^2
- Time to response Initial ([1]; 0.025 % hexyl nicotinate): 5.5 ± 0.7 min
- Time to response Peak ([1]; 0.025 % hexyl nicotinate): 22.5 ± 6.4 min
- Time to response Return to zero ([1]; 0.025 % hexyl nicotinate): 78.5 ± 16.3 min
- Time to response Initial ([1]; 0.05 % hexyl nicotinate): 10.6 ± 5.0 min
- Time to response Peak ([1]; 0.05 % hexyl nicotinate): 27.9 ± 12.3 min
- Time to response Return to zero ([1]; 0.05 % hexyl nicotinate): 75.8 ± 19.2 min
- Time to response Initial ([1]; 0.10 % hexyl nicotinate): 7.8 ± 2.3 min
- Time to response Peak ([1]; 0.10 % hexyl nicotinate): 20.8 ± 6.4 min
- Time to response Return to zero ([1]; 0.10 % hexyl nicotinate): 83.3 ± 17.7 min
- Erythema ([2]; concentrations in the range 0.l to 0.2% by weight of the composition, patients): cause erytheme in a significant proportion of patients
